Experimental data from patent publication US20210267201A1, “HERBICIDAL MIXTURES COMPRISING ISOXAFLUTOLE, DIMETHENAMID OR DIMETHENAMID-P AND AN IMIDAZOLINONE HERBICIDE; AND THEIR USE IN SOYBEAN AND COTTON CULTURES” (BASF SE, priority 2018, published 2021).

System: AVEFA (Avena fatua, wild oat)
Test: greenhouse experiment: herbicidal action, scale from 0 to 100, synergism by Colby's equation
Assay type: in vivo
Conditions: scale 0 to 100, test period 20 days
Method: However, the weed control afforded by the compounds, mixtures or compositions is not limited to these species. The analysis of synergism or antagonism between the mixtures or compositions is determined using Colby's equation.
Synergism can be described as an interaction where the combined effect of two or more compounds is greater than the sum of the individual effects of each of the compounds. The presence of a synergistic effect in terms of percent control, between two mixing partners (X and Y) can be calculated using the Colby equation (Colby, S. R., 1967, Calculating Synergistic and Antagonistic Responses in Herbicide Combinations, Weeds, 15, 21-22):
When the observed combined control effect is greater than the expected (calculated) combined control effect (E), then the combined effect is synergistic.
The culture containers used were plastic flowerpots containing loamy sand with approximately 3.0% of humus as the substrate. The seeds of the test plants were sown separately for each species. For pre-emergence treatment, the active ingredients, which had been suspended or emulsified in water, were applied directly after sowing by means of finely distributing nozzles. […] During this time, the plants were tended, and their response to the individual treatments was evaluated. […]

CS(=O)(=O)c1cc(C(F)(F)F)ccc1C(=O)c1cnoc1C1CC1 [Isoxaflutole, isoxaflutole]
Herbicidal action against AVEFA, Found (Isoxaflutole 12.5 g/ha alone): 0 | Herbicidal action against AVEFA, Found (Isoxaflutole 25 g/ha alone): 0
